{"source": "patent US20120177701A1", "about": "“COMPOSITIONS COMPRISING IMMUNOSTIMULATORY NUCLEIC ACIDS AND RELATED METHODS” (priority 2010, published 2012)", "key": {"HEK-Blue™ Null": {"test_system": "HEK-Blue™ Null", "assay_type": "cell-based, human"}, "J774 murine macrophages": {"test_system": "J774 murine macrophages", "experiment": "TNF-α induction in mouse macrophage cell line J774", "assay_type": "cell-based", "procedure": "Induction of TNF-α by macrophages is a hallmark of human TLR8 activation (Forsbach et al., 2008, J. Immunol., 180:3729-38; Ghosh et al., 2007, Int. Immunopharmacol., 7:1111-21; Gorden et al., 2005, J. Immunol., 174:1259-68). […] In the following experiment mouse macrophage cell line, J774, has been transfected by test ribonucleotides as described above for HEK-Blue™ hTLR8 cells (with the exception that 2-10×10^4 cells/well were used) and TNF-α was measured in culture supernatants at 16-20 hours after transfection."}, "human TLR3": {"target": "T1, human TLR3 (Homo sapiens, UniProt O15455)", "T1 construct": "expressed in transfected cells; host or cells: HEK-Blue hTLR3 (HEK293-derived reporter line)", "T1 sequence (O15455 24-904)": "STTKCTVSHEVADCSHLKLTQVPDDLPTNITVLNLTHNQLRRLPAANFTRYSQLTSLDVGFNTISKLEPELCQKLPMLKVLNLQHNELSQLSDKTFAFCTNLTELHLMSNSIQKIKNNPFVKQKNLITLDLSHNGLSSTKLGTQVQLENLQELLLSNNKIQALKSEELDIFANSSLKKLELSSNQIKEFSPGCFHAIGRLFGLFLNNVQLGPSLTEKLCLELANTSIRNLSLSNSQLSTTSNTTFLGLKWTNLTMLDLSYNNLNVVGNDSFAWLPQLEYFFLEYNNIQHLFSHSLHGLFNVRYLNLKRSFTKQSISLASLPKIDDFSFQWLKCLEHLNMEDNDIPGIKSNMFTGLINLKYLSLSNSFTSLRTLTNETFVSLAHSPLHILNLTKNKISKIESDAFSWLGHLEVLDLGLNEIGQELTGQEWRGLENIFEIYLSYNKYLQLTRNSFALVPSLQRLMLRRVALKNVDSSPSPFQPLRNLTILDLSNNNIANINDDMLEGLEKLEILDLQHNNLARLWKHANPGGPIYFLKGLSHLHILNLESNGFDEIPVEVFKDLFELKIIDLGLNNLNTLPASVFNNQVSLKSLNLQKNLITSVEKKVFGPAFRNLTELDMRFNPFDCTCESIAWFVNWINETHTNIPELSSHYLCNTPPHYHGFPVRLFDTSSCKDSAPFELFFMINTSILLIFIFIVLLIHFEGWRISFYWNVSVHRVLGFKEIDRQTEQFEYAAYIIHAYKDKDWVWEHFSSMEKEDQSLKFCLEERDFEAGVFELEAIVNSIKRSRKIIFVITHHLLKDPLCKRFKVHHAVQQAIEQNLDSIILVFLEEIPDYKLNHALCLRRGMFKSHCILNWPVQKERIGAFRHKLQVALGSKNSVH", "assay_type": "cell-based"}, "human TLR8": {"target": "T2, human TLR8 (Homo sapiens, UniProt Q9NR97)", "T2 construct": "host or cells: HEK293 (HEK-Blue hTLR8) with NF-kB-inducible SEAP reporter", "T2 sequence (Q9NR97 27-1041)": "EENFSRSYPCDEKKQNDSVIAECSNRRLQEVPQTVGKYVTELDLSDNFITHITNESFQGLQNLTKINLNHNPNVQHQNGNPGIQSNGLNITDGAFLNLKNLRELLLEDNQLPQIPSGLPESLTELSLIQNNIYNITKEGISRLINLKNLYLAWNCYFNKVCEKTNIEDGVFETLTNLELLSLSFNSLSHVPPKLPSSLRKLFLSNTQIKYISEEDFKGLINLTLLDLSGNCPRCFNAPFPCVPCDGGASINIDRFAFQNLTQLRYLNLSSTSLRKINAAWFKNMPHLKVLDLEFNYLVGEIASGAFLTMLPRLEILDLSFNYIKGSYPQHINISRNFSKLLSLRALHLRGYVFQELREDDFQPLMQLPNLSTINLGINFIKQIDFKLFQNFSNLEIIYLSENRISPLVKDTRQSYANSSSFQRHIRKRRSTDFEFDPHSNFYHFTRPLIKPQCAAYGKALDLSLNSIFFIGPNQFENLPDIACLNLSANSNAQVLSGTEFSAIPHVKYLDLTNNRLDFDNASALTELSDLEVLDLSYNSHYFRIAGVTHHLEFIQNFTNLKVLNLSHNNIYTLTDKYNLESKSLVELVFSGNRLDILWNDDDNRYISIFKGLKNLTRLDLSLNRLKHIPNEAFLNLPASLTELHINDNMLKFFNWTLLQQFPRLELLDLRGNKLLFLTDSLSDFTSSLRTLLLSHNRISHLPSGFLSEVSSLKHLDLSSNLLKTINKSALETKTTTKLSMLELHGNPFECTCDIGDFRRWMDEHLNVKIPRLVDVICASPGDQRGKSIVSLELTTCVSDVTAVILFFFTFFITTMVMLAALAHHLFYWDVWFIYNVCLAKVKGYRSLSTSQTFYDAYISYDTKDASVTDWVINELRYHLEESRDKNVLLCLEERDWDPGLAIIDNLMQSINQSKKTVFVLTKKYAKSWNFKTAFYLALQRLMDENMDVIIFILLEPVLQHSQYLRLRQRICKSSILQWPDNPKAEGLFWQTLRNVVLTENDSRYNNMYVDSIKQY", "experiment": "HEK-Blue hTLR8 NF-kB-inducible SEAP reporter assay (TLR8 activation)", "assay_type": "cell-based"}, "murine splenocytes": {"test_system": "murine splenocytes", "experiment": "Immune cell activation (CD69 expression, FACS) in murine splenocytes", "assay_type": "cell-based, mouse", "details": "20 hours", "procedure": "In addition, upon removal of the supernatant at 20 hours post-incubation, the mouse cells were stained for the following cell markers: GR1, F4/80, CD11c, CD220, CD3, Ly49b, and CD69, and analyzed by FACS. Different immune cell populations were distinguished as follows: macrophages (F4/80^+/GR1^−); plasmacytoid dendritic cells or pDC (CD11c^+/CD220^+); B cells (CD220^+/CD11c^−); NK (CD3^−/Ly49b^+); myeloid DC or mDC ([…]); granulocytes (eosinophils) (GR1^+high/F4/80^−); T cells (CD3^+); and NKT cells (CD3^+/Ly49b^+). All immune cell populations were quantified by the expression of CD69 (am early activation marker)."}, "[1]": {"test_system": "primary human lymphocytes", "assay_type": "cell-based", "details": "20 hours"}, "[2]": {"details": "200 nM, compared with R848 1 μM"}}, "data": [{"substance": "5′-GAGAUGUUAUUUUGUUUUUAAUAUUUC-3′ (phosphorothioate backbone, further chemistry not given here) [SL-0001, phosphorothioated 27-ribonucleotide from the 3′-terminus of Chikungunya virus strain TSI-GSD-218, bases 12010-12036]", "values": [{"measurement": "activation of SEAP expression", "setting": "HEK-Blue™ Null", "result": "No activation of SEAP expression"}, {"measurement": "TNF-α induction, described in words", "setting": "J774 murine macrophages", "result": "strongly induced TNF-α expression, to the level seen when R-0006 was used"}, {"measurement": "activation of SEAP expression", "setting": "human TLR3", "result": "No activation of SEAP expression"}, {"measurement": "TLR8 activation (fold increase of SEAP induction over the background), described in words", "setting": "human TLR8", "result": "stronger levels of TLR8 activation"}, {"measurement": "concentration at which TLR8 activation was detected starting", "setting": "human TLR8", "result": 40, "unit": "nM"}, {"measurement": "activation of immune cell populations (CD69 expression)", "setting": "murine splenocytes; 200 nM DOTAP-complexed", "result": "induced activation in most of the tested immune cell populations"}, {"measurement": "immune cell activation compared with R848 and control oligonucleotide", "setting": "murine splenocytes; 200 nM DOTAP-complexed, R848 1 μM", "result": "at least comparable to that generated by treatment with 1 μM of R848, and usually exceeded the effects exhibited by the control oligonucleotide R-0006"}, {"measurement": "NKT cell activation (CD69)", "setting": "murine splenocytes; [2]", "result": "exceeded the activation observed for R848"}, {"measurement": "T cell activation (CD69)", "setting": "murine splenocytes; [2]", "result": "exceeded the activation observed for R848"}, {"measurement": "granulocyte activation (CD69)", "setting": "murine splenocytes; [2]", "result": "exceeded the activation observed for R848"}, {"measurement": "macrophage activation (CD69)", "setting": "murine splenocytes; 200 nM, compared with R-0006", "result": "especially higher than the activation observed for R-0006"}, {"measurement": "11-12(p40) induction", "setting": "[1]", "result": "significant levels"}, {"measurement": "IFNγ induction", "setting": "[1]", "result": "significant levels"}, {"measurement": "IL-4 induction (Th2-type cytokine)", "setting": "[1]", "result": "insignificant"}, {"measurement": "IL-5 induction (Th2-type cytokine)", "setting": "[1]", "result": "insignificant"}, {"measurement": "IL-6 induction", "setting": "[1]", "result": "significant levels"}, {"measurement": "IL-10 induction", "setting": "[1]", "result": "significant levels"}, {"measurement": "IL-23 induction", "setting": "[1]", "result": "significant levels"}, {"measurement": "TNFα induction", "setting": "[1]", "result": "significant levels"}]}]}
